Assay results published in paper PMC5218480 (PLoS ONE, 2017).

System: MV-4-11 cells
Assay: Gene expression microarray analysis (Affymetrix PrimeView) and GSEA
Assay type: cell-based, human
Parameters: RFU PODN (11730768_x_at) / Fold change /veh PODN (11730768_x_at) / RFU LINC00158 (11744669_a_at) / Fold change /veh LINC00158 (11744669_a_at) / RFU DUSP10 (11751237_a_at) / Fold change /veh DUSP10 (11751237_a_at) / RFU ID3 (11757404_x_at) / Fold change /veh ID3 (11757404_x_at) / RFU PLEKHG5 (11737974_s_at) / Fold change /veh PLEKHG5 (11737974_s_at) / RFU LRRC4B (11730491_at) / Fold change /veh LRRC4B (11730491_at) / RFU GIMAP4 (11747438_a_at) / Fold change /veh GIMAP4 (11747438_a_at) / RFU KRT8 (11758183_x_at) / Fold change /veh KRT8 (11758183_x_at) / RFU CNN1 (11734310_a_at) / Fold change /veh CNN1 (11734310_a_at) / RFU VPS37D (11726825_at) / Fold change /veh VPS37D (11726825_at) / RFU C10orf10 (11716522_x_at) / Fold change /veh C10orf10 (11716522_x_at) / RFU KIR2DL2 /// KIR2DL4 /// KIR2DL5A /// KIR2DL5B /// KIR2DS1 /// KIR2DS2 /// KIR2DS3 /// KIR2DS4 /// KIR3DL3 /// KIR3DL3 /// KIR3DS1 (11738374_at) / Fold change /veh KIR2DL2 /// KIR2DL4 /// KIR2DL5A /// KIR2DL5B /// KIR2DS1 /// KIR2DS2 /// KIR2DS3 /// KIR2DS4 /// KIR3DL3 /// KIR3DL3 /// KIR3DS1 (11738374_at) / RFU C1QL1 (11718748_at) / Fold change /veh C1QL1 (11718748_at) / RFU TMPRSS4 (11747572_a_at) / Fold change /veh TMPRSS4 (11747572_a_at) / RFU HAMP (11756126_x_at) / Fold change /veh HAMP (11756126_x_at) / RFU RNFT2 (11725882_a_at) / Fold change /veh RNFT2 (11725882_a_at) / RFU NR4A2 (11747474_a_at) / Fold change /veh NR4A2 (11747474_a_at) / RFU ABCC12 (11746883_a_at) / Fold change /veh ABCC12 (11746883_a_at) / RFU TMEM136 (11760407_x_at) / Fold change /veh TMEM136 (11760407_x_at) / RFU CLDN22 /// WWC2 (11732394_at) / Fold change /veh CLDN22 /// WWC2 (11732394_at) / RFU HLA-DPB1 (11760878_x_at) / Fold change /veh HLA-DPB1 (11760878_x_at) / RFU SPINT1 (11716480_a_at) / Fold change /veh SPINT1 (11716480_a_at) / RFU GAP43 (11754022_s_at) / Fold change /veh GAP43 (11754022_s_at) / RFU A4GNT (11735810_at) / Fold change /veh A4GNT (11735810_at) / RFU PRB3 (11715151_x_at) / Fold change /veh PRB3 (11715151_x_at) / RFU TUBB4B (11761932_at) / Fold change /veh TUBB4B (11761932_at) / RFU CAPN14 (11732068_a_at) / Fold change /veh CAPN14 (11732068_a_at) / RFU TMCC2 (11721928_a_at) / Fold change /veh TMCC2 (11721928_a_at) / RFU IRGQ (11745062_a_at) / Fold change /veh IRGQ (11745062_a_at) / RFU FAM174B (11720279_a_at) / Fold change /veh FAM174B (11720279_a_at) / RFU TMPRSS4 (11748680_a_at) / Fold change /veh TMPRSS4 (11748680_a_at) / RFU FAM212B (11763350_a_at) / Fold change /veh FAM212B (11763350_a_at) / RFU PLEKHG5 (11743358_a_at) / Fold change /veh PLEKHG5 (11743358_a_at) / RFU ZSCAN30 (11745921_a_at) / Fold change /veh ZSCAN30 (11745921_a_at) / RFU CMKLR1 (11741424_a_at) / Fold change /veh CMKLR1 (11741424_a_at) / RFU LOC101060620 /// MAPK8IP1 (11723275_at) / Fold change /veh LOC101060620 /// MAPK8IP1 (11723275_at) / RFU SPTSSB (11747773_x_at) / Fold change /veh SPTSSB (11747773_x_at) / RFU PRSS12 (11739890_at) / Fold change /veh PRSS12 (11739890_at) / RFU BIN1 (11741810_x_at) / Fold change /veh BIN1 (11741810_x_at) / RFU WNT11 (11732464_a_at) / Fold change /veh WNT11 (11732464_a_at) / RFU C10orf10 (11716521_a_at) / Fold change /veh C10orf10 (11716521_a_at) / RFU C5orf56 (11738089_at) / Fold change /veh C5orf56 (11738089_at) / RFU CYB561 (11721691_x_at) / Fold change /veh CYB561 (11721691_x_at) / RFU ANKRD19P (11752326_a_at) / Fold change /veh ANKRD19P (11752326_a_at) / RFU OR2T12 /// OR2T33 /// OR2T8 (11738714_s_at) / Fold change /veh OR2T12 /// OR2T33 /// OR2T8 (11738714_s_at) / RFU VCAN (11748164_a_at) / Fold change /veh VCAN (11748164_a_at) / RFU JSRP1 (11732532_at) / Fold change /veh JSRP1 (11732532_at) / RFU KRTAP10-11 (11738290_x_at) / Fold change /veh KRTAP10-11 (11738290_x_at) / RFU MYO3A (11730013_a_at) / Fold change /veh MYO3A (11730013_a_at) / RFU EBF3 (11725865_a_at) / Fold change /veh EBF3 (11725865_a_at) / RFU CAMK2N1 (11719241_x_at) / Fold change /veh CAMK2N1 (11719241_x_at) / RFU C5orf56 (11738088_a_at) / Fold change /veh C5orf56 (11738088_a_at) / RFU OLFML3 (11715873_a_at) / Fold change /veh OLFML3 (11715873_a_at) / RFU LOC100653217 /// NTM (11731650_a_at) / Fold change /veh LOC100653217 /// NTM (11731650_a_at) / RFU MAPK11 (11762145_a_at) / Fold change /veh MAPK11 (11762145_a_at) / RFU FIZ1 (11724087_x_at) / Fold change /veh FIZ1 (11724087_x_at) / RFU OASL (11726364_x_at) / Fold change /veh OASL (11726364_x_at) / RFU SOX15 (11748057_x_at) / Fold change /veh SOX15 (11748057_x_at) / RFU CD79A (11719716_a_at) / Fold change /veh CD79A (11719716_a_at) / RFU HIST1H1D (11736915_at) / Fold change /veh HIST1H1D (11736915_at) / RFU CASKIN2 (11723855_a_at) / Fold change /veh CASKIN2 (11723855_a_at) / RFU LOC730098 (11760151_x_at) / Fold change /veh LOC730098 (11760151_x_at) / RFU OR4N2 (11742367_at) / Fold change /veh OR4N2 (11742367_at) / RFU PRRT2 (11749266_a_at) / Fold change /veh PRRT2 (11749266_a_at) / RFU SNX32 (11753110_a_at) / Fold change /veh SNX32 (11753110_a_at) / RFU CDHR5 (11726645_a_at) / Fold change /veh CDHR5 (11726645_a_at) / RFU RCAN1 (11760418_a_at) / Fold change /veh RCAN1 (11760418_a_at) / RFU FAM167A (11723789_a_at) / Fold change /veh FAM167A (11723789_a_at) / RFU FAM26E (11764081_at) / Fold change /veh FAM26E (11764081_at) / RFU ISYNA1 (11749810_s_at) / Fold change /veh ISYNA1 (11749810_s_at) / RFU ACY1 (11761880_at) / Fold change /veh ACY1 (11761880_at) / RFU 11764098_at / Fold change /veh 11764098_at / RFU SAMD14 (11745864_x_at) / Fold change /veh SAMD14 (11745864_x_at) / RFU NPB (11741838_a_at) / Fold change /veh NPB (11741838_a_at) / RFU TMPRSS6 (11731388_a_at) / Fold change /veh TMPRSS6 (11731388_a_at) / RFU KRTAP10-2 (11738614_at) / Fold change /veh KRTAP10-2 (11738614_at) / RFU ARHGAP8 /// PRR5-ARHGAP8 (11727945_x_at) / Fold change /veh ARHGAP8 /// PRR5-ARHGAP8 (11727945_x_at) / RFU KRTAP5-7 /// NADSYN1 (11734609_at) / Fold change /veh KRTAP5-7 /// NADSYN1 (11734609_at) / RFU RASL12 (11751679_a_at) / Fold change /veh RASL12 (11751679_a_at) / RFU CDKN2B (11736163_a_at) / Fold change /veh CDKN2B (11736163_a_at) / RFU PRF1 (11729649_at) / Fold change /veh PRF1 (11729649_at) / RFU, ZNF638 /// ZNF638-IT1 / Fold change vs veh, ZNF638 /// ZNF638-IT1 / RFU, PANK3 / Fold change vs veh, PANK3 / RFU, SH3YL1 / Fold change vs veh, SH3YL1 / RFU, ZEB2 / Fold change vs veh, ZEB2 / RFU, NRIP1 / Fold change vs veh, NRIP1 / RFU, PTTG1IP / Fold change vs veh, PTTG1IP / RFU, CAPN2 / Fold change vs veh, CAPN2 / RFU, MED14 / Fold change vs veh, MED14 / RFU, SNORA58 / Fold change vs veh, SNORA58 / RFU, C1orf63 / Fold change vs veh, C1orf63 / RFU, LRRFIP1 / Fold change vs veh, LRRFIP1 / RFU, NDUFAF7 / Fold change vs veh, NDUFAF7 / RFU, SLC12A2 / Fold change vs veh, SLC12A2 / RFU, IBTK / Fold change vs veh, IBTK / RFU, ESF1 / Fold change vs veh, ESF1 / Fold change vs veh, TMEM50B / RFU, TAOK1 / Fold change vs veh, TAOK1 / RFU, ACBD3 / Fold change vs veh, ACBD3 / RFU, TMA16 / Fold change vs veh, TMA16 / RFU, RWDD3 / Fold change vs veh, RWDD3 / RFU, BCAT1 / Fold change vs veh, BCAT1 / RFU, EDEM3 / Fold change vs veh, EDEM3 / RFU, TMEM33 / Fold change vs veh, TMEM33 / RFU, WDR75 / Fold change vs veh, WDR75 / RFU, AHCTF1 / Fold change vs veh, AHCTF1 / RFU, TFRC / Fold change vs veh, TFRC / RFU, ZDHHC17 / Fold change vs veh, ZDHHC17 / RFU, NOM1 / Fold change vs veh, NOM1 / RFU, ARL8B / Fold change vs veh, ARL8B / RFU, ZBTB11 / Fold change vs veh, ZBTB11 / RFU, TAMM41 / Fold change vs veh, TAMM41 / RFU, KIAA1704 /// LOC100996395 / Fold change vs veh, KIAA1704 /// LOC100996395 / RFU, ING1 / Fold change vs veh, ING1 / RFU, TRMT61B / Fold change vs veh, TRMT61B / RFU, FUBP3 / Fold change vs veh, FUBP3 / RFU, TP53 / Fold change vs veh, TP53 / RFU, TNKS2 / Fold change vs veh, TNKS2 / RFU, ZFP14 / Fold change vs veh, ZFP14 / RFU, ACTR2 / Fold change vs veh, ACTR2 / RFU, PPP3R1 / Fold change vs veh, PPP3R1 / RFU, PIK3R1 / Fold change vs veh, PIK3R1 / RFU, HNRNPA1 / Fold change vs veh, HNRNPA1 / RFU, RNF170 / Fold change vs veh, RNF170 / RFU, ZNF28 / Fold change vs veh, ZNF28 / RFU, RNGTT / Fold change vs veh, RNGTT / RFU, OGT / Fold change vs veh, OGT / RFU, BRD1 / Fold change vs veh, BRD1 / RFU, MARS / Fold change vs veh, MARS / RFU, ZNF655 / Fold change vs veh, ZNF655 / RFU, FAHD1 / Fold change vs veh, FAHD1 / RFU, BDP1 / Fold change vs veh, BDP1 / RFU, LRRCC1 / Fold change vs veh, LRRCC1 / RFU, ARID1A / Fold change vs veh, ARID1A / RFU, ZNF146 / Fold change vs veh, ZNF146 / RFU, ZNF330 / Fold change vs veh, ZNF330 / RFU, GPN3 / Fold change vs veh, GPN3 / RFU, C9orf123 / Fold change vs veh, C9orf123 / RFU, N4BP2L2 / Fold change vs veh, N4BP2L2 / RFU, ARFIP1 / Fold change vs veh, ARFIP1 / RFU, FAM179B / Fold change vs veh, FAM179B / RFU, BCL10 / Fold change vs veh, BCL10 / RFU, UHRF1BP1L / Fold change vs veh, UHRF1BP1L / RFU, BET1 / Fold change vs veh, BET1 / RFU, CNOT2 / Fold change vs veh, CNOT2 / RFU, ZNF268 / Fold change vs veh, ZNF268 / Fold change vs veh, ZNF507 / RFU, DGCR2 / Fold change vs veh, DGCR2 / RFU, WDSUB1 / Fold change vs veh, WDSUB1 / Fold change vs veh, HSP90B1 /// MIR3652 / RFU, ADSS / Fold change vs veh, ADSS / RFU, GK / Fold change vs veh, GK / RFU, ZNF148 / Fold change vs veh, ZNF148 / RFU, TAF9 / Fold change vs veh, TAF9 / RFU, SLC1A5 / Fold change vs veh, SLC1A5 / RFU, SLMO2 / Fold change vs veh, SLMO2 / RFU, ABCC4 / Fold change vs veh, ABCC4 / RFU, LOC101060439 /// RAP1B / Fold change vs veh, LOC101060439 /// RAP1B / RFU, RFX7 / Fold change vs veh, RFX7 / RFU, GTPBP10 / Fold change vs veh, GTPBP10 / RFU, CNEP1R1 / Fold change vs veh, CNEP1R1 / RFU, BIVM-ERCC5 /// ERCC5 / Fold change vs veh, BIVM-ERCC5 /// ERCC5 / RFU, ILF3 / Fold change vs veh, ILF3 / RFU 11762660_at / Fold change /veh 11762660_at / RFU VCAN (11757783_s_at) / Fold change /veh VCAN (11757783_s_at) / RFU DDX43 (11728927_at) / Fold change /veh DDX43 (11728927_at) / RFU KRT8 (11758188_x_at) / Fold change /veh KRT8 (11758188_x_at) / RFU NKD1 (11759106_at) / Fold change /veh NKD1 (11759106_at) / RFU SRD5A1 (11742802_a_at) / Fold change /veh SRD5A1 (11742802_a_at) / RFU TPSAB1 /// TPSB2 (11721975_s_at) / Fold change /veh TPSAB1 /// TPSB2 (11721975_s_at) / RFU GSTM3 (11746129_a_at) / Fold change /veh GSTM3 (11746129_a_at) / RFU IL23R (11737362_x_at) / Fold change /veh IL23R (11737362_x_at) / RFU TMEM51 (11727254_a_at) / Fold change /veh TMEM51 (11727254_a_at) / RFU PIWIL2 (11732686_x_at) / Fold change /veh PIWIL2 (11732686_x_at) / RFU ORM1 (11744905_x_at) / Fold change /veh ORM1 (11744905_x_at) / RFU CCDC152 (11743942_at) / Fold change /veh CCDC152 (11743942_at) / RFU ECM1 (11717891_a_at) / Fold change /veh ECM1 (11717891_a_at) / RFU IL23R (11748794_a_at) / Fold change /veh IL23R (11748794_a_at) / RFU TNFAIP8L3 (11732012_x_at) / Fold change /veh TNFAIP8L3 (11732012_x_at) / RFU MBOAT4 (11741988_at) / Fold change /veh MBOAT4 (11741988_at) / RFU 11764193_at / Fold change /veh 11764193_at / RFU TMEM53 (11763286_at) / Fold change /veh TMEM53 (11763286_at) / RFU MAGEB2 (11727129_at) / Fold change /veh MAGEB2 (11727129_at) / RFU TMEM200A (11744735_a_at) / Fold change /veh TMEM200A (11744735_a_at) / RFU CCDC152 (11751479_a_at) / Fold change /veh CCDC152 (11751479_a_at) / RFU FAM211A (11726209_a_at) / Fold change /veh FAM211A (11726209_a_at) / RFU RGS16 (11746705_a_at) / Fold change /veh RGS16 (11746705_a_at) / RFU VCAN (11755009_s_at) / Fold change /veh VCAN (11755009_s_at) / RFU RHOB (11743442_s_at) / Fold change /veh RHOB (11743442_s_at) / RFU RGS16 (11720943_a_at) / Fold change /veh RGS16 (11720943_a_at) / RFU RGS16 (11720944_at) / Fold change /veh RGS16 (11720944_at) / RFU, VPS4B / Fold change vs veh, VPS4B / RFU, CREB1 / Fold change vs veh, CREB1 / RFU, DNAJC13 / Fold change vs veh, DNAJC13 / RFU, GNAQ / Fold change vs veh, GNAQ / RFU, CDK5R1 / Fold change vs veh, CDK5R1 / RFU, ZRANB3 / Fold change vs veh, ZRANB3 / RFU, CUL4A / Fold change vs veh, CUL4A / RFU, CCNY / Fold change vs veh, CCNY / RFU, UFL1 / Fold change vs veh, UFL1 / RFU, COG3 / Fold change vs veh, COG3 / RFU, DIAPH2 / Fold change vs veh, DIAPH2 / RFU, SKA2 / Fold change vs veh, SKA2 / RFU, AFF3 / Fold change vs veh, AFF3 / RFU, LMF1 / Fold change vs veh, LMF1 / RFU, IPO11 / Fold change vs veh, IPO11 / RFU, DFFB / Fold change vs veh, DFFB / RFU, FOXP1 / Fold change vs veh, FOXP1 / RFU, CARD8 / Fold change vs veh, CARD8 / RFU, STRN3 / Fold change vs veh, STRN3 / RFU, ADK / Fold change vs veh, ADK / RFU, RASSF2 / Fold change vs veh, RASSF2 / RFU, WIPF1 / Fold change vs veh, WIPF1 / RFU, LARP1B / Fold change vs veh, LARP1B / RFU, RASA1 / Fold change vs veh, RASA1 / RFU, RB1 / Fold change vs veh, RB1 / RFU, PPFIA1 / Fold change vs veh, PPFIA1 / RFU, MAT2A / Fold change vs veh, MAT2A / RFU, CCT5 / Fold change vs veh, CCT5 / RFU, WDR92 / Fold change vs veh, WDR92 / RFU, CUX1 / Fold change vs veh, CUX1 / RFU, TTC7A / Fold change vs veh, TTC7A / RFU, TMEM135 / Fold change vs veh, TMEM135 / RFU, DEPTOR / Fold change vs veh, DEPTOR / RFU, CPM / Fold change vs veh, CPM / RFU, DNAJB6 / Fold change vs veh, DNAJB6 / RFU, CACNA2D3 / Fold change vs veh, CACNA2D3 / RFU, DTX4 / Fold change vs veh, DTX4 / RFU, TFCP2 / Fold change vs veh, TFCP2 / RFU, GMCL1 /// GMCL1P1 / Fold change vs veh, GMCL1 /// GMCL1P1 / RFU, AEBP2 / Fold change vs veh, AEBP2 / RFU, SNHG1 /// SNORD22 /// SNORD25 /// SNORD26 /// SNORD27 /// SNORD28 /// SNORD29 /// SNORD31 / Fold change vs veh, SNHG1 /// SNORD22 /// SNORD25 /// SNORD26 /// SNORD27 /// SNORD28 /// SNORD29 /// SNORD31 / Fold change (Aza/veh), C12orf56 (ProbeSet 11735607_a_at) / Fold change (ACY-1035/veh), C12orf56 (ProbeSet 11735607_a_at) / Fold change (Aza/veh), FGFR1OP (ProbeSet 11751329_s_at) / Fold change (ACY-1035/veh), FGFR1OP (ProbeSet 11751329_s_at) / Fold change (Aza/veh), VPS36 (ProbeSet 11739960_a_at) / Fold change (ACY-1035/veh), VPS36 (ProbeSet 11739960_a_at) / RFU SYPL1 (11715823_x_at) / Fold change /veh SYPL1 (11715823_x_at) / RFU IGFBP7 (11715501_s_at) / Fold change /veh IGFBP7 (11715501_s_at) / RFU REEP3 (11722064_at) / Fold change /veh REEP3 (11722064_at) / RFU IGLL1 (11728026_x_at) / Fold change /veh IGLL1 (11728026_x_at): dose or concentration left out as unconfirmed
Details: ProbeSet 11721611_a_at; LIST D

Nc1ccc(-c2cccs2)cc1NC(=O)c1ccc2c(c1)cc(C1CC1)n2CCN1CCOCC1 [ACY-1035]
Fold change vs veh, IPO11: 0.84
